Measurements taken from patent US8198293B2, “Oxymatrine compositions and related methods for treating and preventing chronic infectious diseases” (priority 2008, dated 2012).

Columns and labels:
[1] = test system: chronic enterovirus infection / chronic fatigue; assay: Case reports: treatment of chronic fatigue (Examples 2-5); format: in vivo, human; settings: Example 5 patient, before oxymatrine
Procedure: A person with episodes of diarrhea while traveling to Tonga developed severe respiratory infection soon thereafter. The symptoms consisted of fevers to 105° F., night sweats, diffuse myalgia, tachycardia, fatigue, sinus congestion and cough, and unresponsiveness to antibiotics. The patient developed profound fatigue thereafter and went on total disability three months after the onset of symptoms. Initial Coxsackie B virus (CBV) 3, CVB4 and echovirus 9 antibody titers were 1:320, 1:160, 1:80 (normal <1:10), respectively.
The patient could not work for the next 18 months. They were started on oxymatrine at 300 mg twice a day (bid). After taking oxymatrine for two months, they were able to take short walks, but still exhausted after one hour of activity requiring five hour naps. At the end of three months of therapy, they started having fevers of 104-105° F. for several days with marked decrease in diffuse myalgia. […] CVB3, CVB4 and echovirus antibody three months after therapy were 1:160, 1:160 and 1:20, respectively.
A person who had recurrent episodes of debilitating fatigue became totally incapacitated after approximately 17 years. […] They went into remission but relapsed nine months later after developing a minor upper respiratory infection. They improved minimally after several months of bed rest, but was barely able to work six hours per day. They had brain fog, myalgia ( 7/10 pain) and was barely able to walk even 1-2 blocks.
Three days after taking oxymatrine at a dose of 300 mg bid, the myalgia intensified ( 10/10 pain), especially one hour after taking the pills. One week after starting oxymatrine, routine laboratory tests including CBC, chemistry panel and creatine phosphokinase (CPK) were normal. They continued having significant fatigue and myalgia for the next three weeks, but the symptoms resolved one week after stopping the medication. Mild increase in myalgia recurred three days after resuming oxymatrine, but resolved after continuing the medication for the next two weeks. The patient felt well at the end of three months with minimal discomfort in a few muscle groups.
Severe myalgia recurred after resuming vigorous exercise for three weeks while taking oxymatrine. They had to stop exercise for the two months allowing cessation of myalgia. After taking oxymatrine for six months, the patient felt well. Over the next six months after stopping the medication, the patient continuously performed heavy physical activities without significant difficulty. After developing another episode of upper respiratory symptoms, their symptoms relapsed. They have resumed oxymatrine but experienced increasing myalgia as the fatigue improved.
A person with a known history of frequent respiratory infections and vasovagal syncope developed respiratory infection, which was followed by bedridden fatigue. Enteroviral protein was detected in the stomach biopsy consistent with chronic enterovirus infection. […] After vigorous exercise, they would still have relapses of bedridden fatigue for one day but continued to work 10-12 hours per day for the next 12 months, walking two miles per day. Laboratory tests were normal while on therapy.
A person developed debilitating fatigue, sore throat, oral ulcers, vertigo, headaches and cognitive dysfunction two months after having a flu-like illness. […] Approximately four years later, the patient started taking oxymatrine. After an initial increase of gastrointestinal symptoms for the first two weeks, the patient tolerated 500 mg per day of oxymatrine.
The symptoms continued for two weeks and resolved after stopping oxymatrine. […] They continued to improve for 12 months after taking the medication.

[2] = test system: Coxsackievirus B myocarditis; settings: intravenous; chronic Coxsackievirus B myocarditis; 0% in placebo group; cited from earlier work
coxsackievirus B = settings: in vitro, cell cultures; mechanism not defined; cited from earlier work
[3] = test system: Mycobacterium avium complex (MAC); assay: Case report: Mycobacterium avium complex infection of the lung; format: in vivo, human; settings: before oxymatrine, added to four-drug therapy
Procedure: A person with known history of Mycobacterium avium complex (MAC) infection of the lung and bronchiectasis for several years was treated with clarithromycin, ethambutol, ciprofloxacin and rifabutin for about five years. […] Intravenous amikacin was added following right middle and left lingula lobectomy. In spite of the above therapy, sputum and repeat bronchial washing obtained by bronchoscopy grew MAC within three weeks. A computed tomography scan of the chest remained unchanged except for the post-surgical changes.
Because of persistent positive cultures despite the four drug therapies, the patient was started on oxymatrine, which they tolerated well. […] Sputum became clear in color then resolved. About two months after the start of oxymatrine, the patient had fevers, flu-like symptoms, increase in non-productive cough, bilateral uveitis and elevation of liver enzymes to 3.5 times normal values. The symptoms lasted two weeks and resolved after tapering dose of oxymatrine to 200 mg bid. Liver enzymes returned to normal within six weeks. […] The anti-MAC medications were discontinued after […] of oxymatrine therapy. The dose of oxymatrine was tapered to 100 mg tid at four and a half months of therapy and then stopped after six months of total therapy. The patient felt well at the six month follow-up.

## CC(C)[C@H](N)C(=O)OCCOCn1cnc2c(=O)[nH]c(N)nc21 [valacyclovir]
[1]
  response of fatigue and other symptoms: did not respond

## O=C1CCC[C@@H]2[C@H]3CCCN4CCC[C@@H](CN12)[C@@H]34 [matrine]
[2]
  patients with improvement of cardiac function, increase in lymphocyte number and function, and loss of viral markers: more than 90%
Coxsackievirus B
  growth inhibition of coxsackievirus B: growth inhibition

## gamma interferon
[3]
  benefit on persistent positive sputum culture for MAC: without significant benefit
